Assay results as given in patent publication US20250179047A1, “5-[7-(3,4-DIHYDRO-1H-ISOQUINOLINE-2-CARBONYL)-1,2,3,4 TETRAHYDROISOQUINOLIN-6-YL]-1H-PYRROLE-3-CARBOXAMIDE DERIVATIVES, PHARMACEUTICAL COMPOSITIONS CONTAINING THEM AND THEIR USES AS PRO-APOPTOTIC AGENTS” (LES LABORATOIRES SERVIER, priority 2022, published 2025).
Read-outs that look alike come from different tables or passages of the source.

Tests used:
BCL2 WT = BCL2 WT (Homo sapiens (Human), UniProt P10415); assay: TR-FRET competitive binding assay, BCL2 WT
Summary of the method: (§1)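 Competitive TR-FRET displacement of fluorescein-PUMA peptide (2 or 20 nM) from 0.5 nM terbium-labelled N-terminal Halo-fusion BCL2 (1-207, wild type or mutant) or BCLXL (2-196), expressed in E. coli. Buffer 50 mM Hepes pH 7.5, 150 mM NaCl, 5% DMSO; 2 h at 23°C. 520/495 nm ratio fitted over 11 points for IC50, converted to Ki.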

BCL2 G101V [1] = biological target: BCL2 G101V (Homo sapiens, UniProt P10415, G101V); assay: TR-FRET competitive binding assay, BCL2 G101V; settings: BCL2 G101V; Ki determined from IC50; read-out: TR_FRET EKI_Bcl2 G101V
Summary of the method: as §1

BCL2 G101V [2] = assay: TR-FRET competitive binding assay, BCL2 G101V; design: species or system human; settings: for TR_FRET EKI G101V/WT selectivty ratio: ratio Ki BCL2 G101V / Ki BCL2 WT; for TR_FRET EKI G101V/WT selectivty: ratio of Ki BCL2 G101V to BCL2 WT
Summary of the method: as §1

BCL2 D103Y = BCL2 D103Y (Homo sapiens, UniProt P10415, D103Y); assay: TR-FRET competitive binding assay, BCL2 D103Y; settings: Ki determined from IC50, read-out: TR_FRET EKI_Bcl2 D103Y
Summary of the method: as §1

BCLXL WT = BCLXL WT (Homo sapiens (Human), UniProt Q07817); assay: TR-FRET competitive binding assay, BCLXL WT; settings: for Ki: BCLXL WT, Ki determined from IC50, read-out: TR_FRET EKI BclxL; for TR_FRET EKI BCLxL/WT selectivty ratio: ratio Ki BCLxL / Ki BCL2 WT; for TR_FRET EKI BCLxL/WT selectivty: ratio of Ki BCLxL to BCL2 WT
Summary of the method: as §1

KMS-12-PE Bcl-2 WT = assay: In vitro cytotoxicity CellTiter-Glo 48 h, KMS-12-PE Bcl-2 WT; type: cell-based; settings: Homo sapiens, KMS-12-PE, C50 = concentration needed to reach 50% of the cellular viability
Summary of the method: (§2)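 CTG luminescence read-out; C50 = concentration reaching 50% cellular viability. Cells: KMS-12-PE expressing Bcl-2 WT or G101V (lentiviral, TagRFP-sorted). 11-pt curve, 48 h, 37 °C/5% CO2.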

KMS-12-PE Bcl-2 G101V = assay: In vitro cytotoxicity CellTiter-Glo 48 h, KMS-12-PE Bcl-2 G101V; type: cell-based; settings: for Ratio (G101V/WT): C50 KMS-12-PE Bcl-2 G101V over C50 KMS-12-PE Bcl-2 WT; for IC50: Homo sapiens, KMS-12-PE, 48 h, CellTiter-Glo, C50 = concentration needed to reach 50% of the cellular viability
Summary of the method: as §2

platelets = assay: Platelet depletion in SCID mice; type: in vivo; settings: 25 mg/kg IV bolus, vs control group; for Platelet loss (%) 6 h: 6 h after dosing; for Platelet loss (%) 24 h: 24 h after dosing
Experimental: (§3) Pharmacokinetic (PK) and platelet toxicity were investigated in SCID mice. Compounds were administered at 25 mg/kg by IV bolus, and formulated in PEG/Ethanol/NaCl 0.9% (40/10/50 v/v/v).
(§4) Blood samples (3 animals/time point and 3 time points/animal) were collected over 24 h after dosing: 0.05 h, 0.5 h, 1 h, 3 h, 6 h and 24 h for PK and 6 h and 24 h for platelets.
(§5) PK samples were analyzed by liquid chromatography using tandem mass spectrometry detection (LC-MS/MS) and platelet count (109/L) was measured using an hematology analyzer. Percentage of platelet loss was calculated at both time points (T+6 h and 24 h) as compared to a control group of 6 animals. PK parameters (Cinf and AUC24, which correspond to the concentration at the end of bolus administration and the area under curve over 24 h, respectively) were also determined using a non-compartmental analysis.

[3] = Pharmacokinetics in SCID mice; type: in vivo; settings: 25 mg/kg IV bolus; for PK parameters Cinf: concentration at the end of bolus administration; for AUC: mouse, blood, area under curve over 24 h, read-out: PK parameters AUC24
Experimental: as §3, §4, §5

BCL2 F104I = BCL2 F104I (Homo sapiens, UniProt P10415, F104I); assay: TR-FRET competitive binding assay, BCL2 F104I; settings: Ki determined from IC50, read-out: TR_FRET EKI_Bcl2 F104I
Summary of the method: as §1

BCL2 D111A = BCL2 D111A (Homo sapiens, UniProt P10415, D111A); assay: TR-FRET competitive binding assay, BCL2 D111A; settings: Ki determined from IC50, read-out: TR_FRET EKI_Bcl2 D111A
Summary of the method: as §1

[4] = Ki determined from IC50, read-out: TR_FRET EKI_Bcl2 WT
[5] = Ki determined from IC50, read-out: TR_FRET EKI_Bcl2

BCLXL WT, sequence (Q07817 other isoform, or with tags, fused parts or gaps): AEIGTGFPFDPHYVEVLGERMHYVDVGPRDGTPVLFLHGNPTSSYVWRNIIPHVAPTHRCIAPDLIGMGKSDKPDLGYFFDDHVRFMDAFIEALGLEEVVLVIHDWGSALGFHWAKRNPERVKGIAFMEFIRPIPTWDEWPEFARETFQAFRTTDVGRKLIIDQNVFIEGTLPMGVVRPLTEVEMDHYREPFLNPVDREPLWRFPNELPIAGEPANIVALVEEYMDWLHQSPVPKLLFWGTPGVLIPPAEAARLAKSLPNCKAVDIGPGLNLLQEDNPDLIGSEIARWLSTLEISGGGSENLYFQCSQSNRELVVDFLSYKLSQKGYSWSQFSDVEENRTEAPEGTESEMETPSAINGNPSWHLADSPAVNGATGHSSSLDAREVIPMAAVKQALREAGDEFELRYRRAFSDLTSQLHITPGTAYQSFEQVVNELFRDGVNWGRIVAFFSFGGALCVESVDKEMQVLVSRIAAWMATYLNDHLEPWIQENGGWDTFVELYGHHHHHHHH

Row | SMILES | Ki (BCL2 WT; [4]) [nM] | Ki (BCL2 G101V [1]) [nM] | TR_FRET EKI G101V/WT selectivty ratio (BCL2 G101V [2]) | Ki (BCL2 D103Y) [nM] | Ki (BCLXL WT) [nM] | TR_FRET EKI BCLxL/WT selectivty ratio (BCLXL WT) | IC50 (KMS-12-PE Bcl-2 WT) [µM] | Ratio (G101V/WT) (KMS-12-PE Bcl-2 G101V) | IC50 (KMS-12-PE Bcl-2 G101V) [µM] | Platelet loss (%) 6 h (platelets) [%] | Platelet loss (%) 24 h (platelets) [%] | PK parameters Cinf [3] [µM] | AUC [3] [µM·h] | Ki (BCL2 F104I) [nM] | Ki (BCL2 D111A) [nM] | Ki (BCL2 WT; [5]) [nM] | TR_FRET EKI G101V/WT selectivty (BCL2 G101V [2]) | TR_FRET EKI BCLxL/WT selectivty (BCLXL WT)
1 | Cc1c(N(C(=O)c2cc(-c3cc4c(cc3C(=O)N3Cc5ccccc5C[C@H]3C)CN(S(=O)(=O)Cc3ccccc3)CC4)n(C)c2C)c2ccc(O)cc2)cc(C#N)n1C [Example 14, 5-[2-benzylsulfonyl-7-[(3R)-3-methyl-3,4-dihydro-1H-isoquinoline-2-carbonyl]-3,4-dihydro-1H-isoquinolin-6-yl]-N-(5-cyano-1,2-dimethyl-pyrrol-3-yl)-N-(4-hydroxyphenyl)-1,2-dimethyl-pyrrole-3-carboxamide] | 0.9 | 4.9 | 5.4 | 3.7 | 53 | 58.9 | 0.0096 | 8.86 | 0.0852 | 16.1 | 12.5 | 13.5 | 18.5 |  |  |  |  | 
2 | Cc1c(N(C(=O)c2cc(-c3cc4c(cc3C(=O)N3Cc5ccccc5C[C@H]3C)CN(C(=O)Cc3ccc(N5CCN(CC(F)(F)F)CC5)cc3)CC4)n(C)c2C)c2ccc(O)cc2)cc(C#N)n1C [Example 23, N-(5-cyano-1,2-dimethyl-1H-pyrrol-3-yl)-N-(4-hydroxyphenyl)-1,2-dimethyl-5-{7-[(3R)-3-methyl-1,2,3,4-tetrahydroisoquinoline-2-carbonyl]-2-(2-{4-[4-(2,2,2-trifluoroethyl)piperazin-1-yl]phenyl}acetyl)-1,2,3,4-tetrahydroisoquinolin-6-yl}-1H-pyrrole-3-carboxamide] | 0.58 | 3.5 | 6.0 | 1.09 | 48.5 | 83.6 | 0.0096 | 9.34 | 0.0898 | 19.6 | 12.8 | 6.8 | 10.8 | 19.7 | 1.54 |  |  | 
3 | Cc1c(N(C(=O)c2cc(-c3cc4c(cc3C(=O)N3Cc5ccccc5C[C@H]3C)CN(C(=O)Cc3ccc(C5CCN(CCF)CC5)c(F)c3)CC4)n(C)c2C)c2ccc(O)cc2)cc(C#N)n1C [Example 28, N-(5-cyano-1,2-dimethylpyrrol-3-yl)-5-[2-(2-{3-fluoro-4-[1-(2-fluoroethyl)piperidin-4-yl]phenyl}acetyl)-7-{[(3R)-3-methyl-3,4-dihydro-1H-isoquinolin-2-yl]carbonyl}-3,4-dihydro-1H-isoquinolin-6-yl]-N-(4-hydroxyphenyl)-1,2-dimethylpyrrole-3-carboxamide] | 0.25 | 1.2 | 4.8 | 0.34 | 5.6 | 22.4 | 0.0099 | 6.51 | 0.0643 | 23.2 | 15.2 | 18.2 | 38.3 | 6.47 | 0.59 |  |  | 
4 | Cc1c(N(C(=O)c2cc(-c3cc4c(cc3C(=O)N3Cc5ccccc5C[C@H]3CN(C(C)C)C(C)C)CN(C(=O)Cc3ccc(OCCN5CCOCC5)cc3F)CC4)n(C)c2C)c2ccc(O)cc2)cc(C#N)n1C [Example 152, N-(5-cyano-1,2-dimethylpyrrol-3-yl)-5-(7-{[(3S)-3-[(diisopropylamino)methyl]-3,4-dihydro-1H-isoquinolin-2-yl]carbonyl}-2-(2-{2-fluoro-4-[2-(morpholin-4-yl)ethoxy]phenyl}acetyl)-3,4-dihydro-1H-isoquinolin-6-yl)-N-(4-hydroxyphenyl)-1,2-dimethylpyrrole-3-carboxamide] | 0.16 | 1.1 | 6.9 | 0.41 | 3.9 | 24.4 | 0.0105 | 3.5238 | 0.037 |  |  |  |  | 0.64 | 0.36 |  |  | 
5 | Cc1c(C(=O)N(c2ccc(O)cc2)c2cnn(C(F)F)c2)cc(-c2cc3c(cc2C(=O)N2Cc4ccccc4C[C@H]2C)CN(C(=O)Cc2ccc(OCCN4CCOCC4)cc2)CC3)n1C [Example 228, N-[1-(difluoromethyl)pyrazol-4-yl]-5-[2-[2-[4-(2-morpholinoethoxy)phenyl]acetyl]-7-[(3R)-3-methyl-3,4-dihydro-1H-isoquinoline-2-carbonyl]-3,4-dihydro-1H-isoquinolin-6-yl]-N-(4-hydroxyphenyl)-1,2-dimethyl-pyrrole-3-carboxamide] |  | 0.84 |  | 0.21 | 14.9 |  | 0.0146 | 11.0 | 0.161 |  |  |  |  | 1.6 | 0.2 | 0.06 | 14 | 248.3
6 | Cc1c(N(C(=O)c2cc(-c3cc4c(cc3C(=O)N3Cc5ccccc5C[C@H]3CN3CCCCC3)CN(C(=O)Cc3ccc(OCCN5CCOCC5)cc3F)CC4)n(C)c2C)c2ccc(O)cc2)cc(C#N)n1C [Example 229] |  | 0.22 |  | 0.11 | 1.8 |  | 0.00502 | 4.4 | 0.0222 |  |  |  |  | 0.164 | 0.1 | 0.04 | 5.5 | 45
